# Measurements taken from patent US20240254082A1, “Substituted Isoindoline-1, 3-diketone PDE4 Inhibitor and Pharmaceutical Application Thereof” (SUZHOU INTRAGRAND PHARMA CO., LTD, priority 2021, published 2024).
# Target: PDE4D3 (Homo sapiens, UniProt Q08499)
# Experiment: Inhibition assay of PDE4D3 enzyme (TR-FRET kit)
# Type: biochemical
# Protocol: 2. Inhibition assay of PDE4D3 enzyme:
# Materials and Instruments:
# FAM substrate: A stock solution of 20 μM FAM substrate was diluted to 200 nM with PDE assay buffer. 12.5 μL of the diluted substrate was added to each reaction well.
# 5 μL of the compound stock solution was added to 45 μL of DMSO to prepare a 1 mM diluent. 5 μL of the 1 mM diluent was added to 45 μL of PDE assay buffer to prepare a gradient dilution starting point. Then, according to the method of adding 5 μL of the previous concentration solution to 15 μL of PDE assay buffer, gradient dilution was carried out for 9 times to prepare compound working solutions with 10 concentrations. The working solutions were added to compound wells at 2.5 μL/well.
# PDE4D3: 0.054 μL of a PDE4D3 recombinase stock solution was added to 1500 μL of PDE buffer, and the mixture was added to all compound wells and positive control wells at 10 μL/well. 10 μL of PDE assay buffer was added to substrate control wells.
# Binding solution: 3750 μL of binding buffer A and 3750 μL of binding buffer B were mixed well. Then, 150 μL of a binder was added into the mixture and mixed well. 7.5 μL of a Tb donor was added and mixed well. The obtained mixture was added to all wells at 50 μL/well.
# S520=Read value of sample 520 nm
# S490=Read value of sample 490 nm
# Tb520=Read value of Tb only 520 nm
# Tb490=Read value of Tb only 490 nm
# FRETp=Positive control FRET
# FRETsub=Substrate control FRET.
# Sequence of PDE4D3 (Q08499 1-673 isoform Q08499-2): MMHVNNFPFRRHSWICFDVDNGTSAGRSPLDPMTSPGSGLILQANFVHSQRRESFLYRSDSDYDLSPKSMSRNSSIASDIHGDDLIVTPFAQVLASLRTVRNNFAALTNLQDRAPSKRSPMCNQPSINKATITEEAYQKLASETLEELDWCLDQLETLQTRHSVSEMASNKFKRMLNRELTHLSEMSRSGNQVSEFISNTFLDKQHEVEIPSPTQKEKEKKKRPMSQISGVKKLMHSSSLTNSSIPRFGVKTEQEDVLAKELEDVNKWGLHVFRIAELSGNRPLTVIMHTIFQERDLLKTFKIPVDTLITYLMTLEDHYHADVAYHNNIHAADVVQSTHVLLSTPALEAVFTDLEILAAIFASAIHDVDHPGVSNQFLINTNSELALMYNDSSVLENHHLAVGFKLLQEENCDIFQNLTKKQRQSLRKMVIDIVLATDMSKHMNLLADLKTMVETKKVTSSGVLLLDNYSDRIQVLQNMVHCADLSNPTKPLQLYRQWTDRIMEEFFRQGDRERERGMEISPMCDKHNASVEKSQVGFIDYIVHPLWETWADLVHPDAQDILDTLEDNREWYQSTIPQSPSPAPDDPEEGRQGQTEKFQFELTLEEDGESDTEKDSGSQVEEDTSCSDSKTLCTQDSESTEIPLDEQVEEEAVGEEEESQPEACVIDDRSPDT
row,SMILES,IC50 [nM]
1,"CCCCCCCCCCCCCc1ccc(NC(=O)C2CC2)c2c1C(=O)N([C@H](CS(C)(=O)=O)c1ccc(OC)c(OCC)c1)C2=O [Example 15, (S)-2-[1-(3-ethoxy-4-methoxyphenyl)-2-alkylsulfonylethyl]-4-cyclopropanamido-7-tridecyl isoindoline-1,3-diketone]",> 200
2,CCCCCc1ccc(NC(=O)CO)c2c1C(=O)N([C@H](CS(C)(=O)=O)c1ccc(OC)c(OCC)c1)C2=O [Example 30],50 to 200
3,"CCCCCCCCc1ccc(NC(=O)CCCCl)c2c1C(=O)N([C@H](CS(C)(=O)=O)c1ccc(OC)c(OCC)c1)C2=O [Example 22, (S)-2-[1-(3-ethoxy-4-methoxyphenyl)-2-alkylsulfonylethyl]-4-(γ-chlorobutyramido)-7-octyl isoindoline-1,3-diketone]",> 200
4,"CCCCCCCCCc1ccc(NC(=O)CC)c2c1C(=O)N([C@H](CS(C)(=O)=O)c1ccc(OC)c(OCC)c1)C2=O [Example 18, (S)-2-[1-(3-ethoxy-4-methoxyphenyl)-2-alkylsulfonylethyl]-4-propanamido-7-nonyl isoindoline-1,3-diketone]",50 to 200
5,"CCCCCCc1ccc2c(c1NC(=O)CCCCl)C(=O)N([C@H](CS(C)(=O)=O)c1ccc(OC)c(OCC)c1)C2=O [Example 1, (S)-2-[1-(3-ethoxy-4-methoxyphenyl)-2-alkylsulfonylethyl]-4-(γ-chlorobutyramido)-5-hexyl isoindoline-1,3-diketone]",50 to 200
6,"CCCCCCc1ccc2c(c1NC(=O)CC)C(=O)N([C@H](CS(C)(=O)=O)c1ccc(OC)c(OCC)c1)C2=O [Example 23, (S)-2-[1-(3-ethoxy-4-methoxyphenyl)-2-alkylsulfonylethyl]-4-propanamido-6-hexyl isoindoline-1,3-diketone]",50 to 200
7,"CCCCCc1ccc(CNC(C)=O)c2c1C(=O)N([C@H](CS(C)(=O)=O)c1ccc(OC)c(OCC)c1)C2=O [Example 4, (S)-2-[1-(3-ethoxy-4-methoxyphenyl)-2-alkylsulfonylethyl]-4-acetamidomethyl-7-pentyl isoindoline-1,3-diketone]",10 to 50
8,"CCCC/C=C/c1ccc2c(c1NC(=O)CCCCl)C(=O)N([C@H](CS(C)(=O)=O)c1ccc(OC)c(OCC)c1)C2=O [Example 2, (S)-2-[1-(3-ethoxy-4-methoxyphenyl)-2-alkylsulfonylethyl]-4-(γ-chlorobutyramido)-5-hexene (−1) yl isoindoline-1,3-diketone]",10 to 50
9,"CCCCCCCCCc1ccc(NC(=O)C2CC2)c2c1C(=O)N([C@H](CS(C)(=O)=O)c1ccc(OC)c(OCC)c1)C2=O [Example 17, (S)-2-[1-(3-ethoxy-4-methoxyphenyl)-2-alkylsulfonylethyl]-4-cyclopropanamido-7-nonyl isoindoline-1,3-diketone]",> 200
10,"CCCCCCCCCC(=O)Nc1cccc2c1C(=O)N([C@H](CS(C)(=O)=O)c1ccc(OC)c(OCC)c1)C2=O [Example 8, (S)-2-[1-(3-ethoxy-4-methoxyphenyl)-2-alkylsulfonylethyl]-4-decanamido-7-pentenyl (−1) isoindoline-1,3-diketone]",50 to 200
11,"CCCCc1ccc(NC(=O)CCl)c2c1C(=O)N([C@H](CS(C)(=O)=O)c1ccc(OC)c(OCC)c1)C2=O [Example 26, (S)-2-[1-(3-ethoxy-4-methoxyphenyl)-2-alkylsulfonylethyl]-4-chloroacetamido-7-butyl isoindoline-1,3-diketone]",10 to 50
12,CCCCCc1ccc(NC(=O)CC(C)C)c2c1C(=O)N([C@H](CS(C)(=O)=O)c1ccc(OC)c(OCC)c1)C2=O [Example 11],> 200
13,CCCCCC(=O)Nc1ccc(CCCCC)c2c1C(=O)N([C@H](CS(C)(=O)=O)c1ccc(OC)c(OCC)c1)C2=O [Example 12],> 200
14,"CCCCCCCCc1cc(NC(=O)C2CC2)c2c(c1)C(=O)N([C@H](CS(C)(=O)=O)c1ccc(OC)c(OCC)c1)C2=O [Example 3, (S)-2-[1-(3-ethoxy-4-methoxyphenyl)-2-alkylsulfonylethyl]-4-cyclopropanamido-5-octyl isoindoline-1,3-diketone]",> 200
15,"CCCCCCCCCc1ccc(NC(=O)CCC)c2c1C(=O)N([C@H](CS(C)(=O)=O)c1ccc(OC)c(OCC)c1)C2=O [Example 16, (S)-2-[1-(3-ethoxy-4-methoxyphenyl)-2-alkylsulfonylethyl]-4-butylamido-7-nonyl isoindoline-1,3-diketone]",> 200
16,"CCCCCc1ccc(NC(=O)CCC)c2c1C(=O)N([C@H](CS(C)(=O)=O)c1ccc(OC)c(OCC)c1)C2=O [Example 10, (S)-2-[1-(3-ethoxy-4-methoxyphenyl)-2-alkylsulfonylethyl]-4-butylamido-7-pentyl isoindoline-1,3-diketone]",50 to 200
17,"CCCCCc1ccc(NC(=O)C2CC2)c2c1C(=O)N([C@H](CS(C)(=O)=O)c1ccc(OC)c(OCC)c1)C2=O [Example 6, (S)-2-[1-(3-ethoxy-4-methoxyphenyl)-2-alkylsulfonylethyl]-4-cyclopropanamido-7-pentyl isoindoline-1,3-diketone]",50 to 200
18,"CCCCCCCCCCCCCc1ccc(NC(C)=O)c2c1C(=O)N([C@H](CS(C)(=O)=O)c1ccc(OC)c(OCC)c1)C2=O [Example 14, (S)-2-[1-(3-ethoxy-4-methoxyphenyl)-2-alkylsulfonylethyl]-4-acetamido-7-tridecyl isoindoline-1,3-diketone]",> 200
19,CCCCCc1ccc(NC(=O)COC)c2c1C(=O)N([C@H](CS(C)(=O)=O)c1ccc(OC)c(OCC)c1)C2=O [Example 31],50 to 200
20,"CCCCCCCCCCCCCc1ccc(NC(=O)CC)c2c1C(=O)N([C@H](CS(C)(=O)=O)c1ccc(OC)c(OCC)c1)C2=O [Example 19, (S)-2-[1-(3-ethoxy-4-methoxyphenyl)-2-alkylsulfonylethyl]-4-propanamido-7-tridecyl isoindoline-1,3-diketone]",> 200
21,"CCCCCCCc1ccc(NC(=O)CCCCl)c2c1C(=O)N([C@H](CS(C)(=O)=O)c1ccc(OC)c(OCC)c1)C2=O [Example 21, (S)-2-[1-(3-ethoxy-4-methoxyphenyl)-2-alkylsulfonylethyl]-4-(γ-chlorobutyramido)-7-heptyl isoindoline-1,3-diketone]",> 200
22,"CCCCCCc1ccc(NC(=O)CCCCl)c2c1C(=O)N([C@H](CS(C)(=O)=O)c1ccc(OC)c(OCC)c1)C2=O [Example 20, (S)-2-[1-(3-ethoxy-4-methoxyphenyl)-2-alkylsulfonylethyl]-4-(γ-chlorobutyramido)-7-hexyl isoindoline-1,3-diketone]",50 to 200
